The subject of experiment [1] is Plasmopara viticola. The experiment can be described thus: Example 6: downy mildew on grapevines, greenhouse, protective spray (1 day). It is filed as in vivo.
The test system of experiment [2] is Phakopsora pachyrhizi. The experiment can be described thus: Example 11: soybean rust on soybeans, greenhouse. It is filed as in vivo.
In experiment [3] the test system is downy mildew on grapevines. The experiment can be described thus: Example 13: downy mildew on grapevines, outdoor test with natural infections. It is filed as in vivo.
Experiment [4] has as its system Plasmopara viticola. The experiment can be described thus: Example 8: downy mildew on grapevines, bar application pattern. It is filed as in vivo.
Experiment [5] has as its system Plasmopara viticola. The experiment in a line: Example 7: downy mildew on grapevines, greenhouse, as example 6. It is filed as in vivo.
For experiment [6], the system named is downy mildew on grapevines. The experiment can be described thus: Example 12: downy mildew on grapevines, outdoor test with natural infections. In kind it is in vivo.
Experiment [7] has as its system downy mildew on grapevines. The experiment can be described thus: Example 14: downy mildew on grapevines, outdoor test with natural infections. In kind it is in vivo.
Experiment [8] concerns Plasmopara viticola. The experiment can be described thus: Example 10: downy mildew on grapevines, greenhouse, protective spray (7 days). It is filed as in vivo.
The test system of experiment [9] is Plasmopara viticola. The experiment in a line: Example 9: downy mildew on grapevines, translaminar action. In kind it is in vivo.
Experiment [10] has as its system Phytophthora infestans. The following applies: in vivo.
Experiment [11] has as its system Phytophthora infestans. The following applies: in vivo. The source holds these as a separate data set.

Where two headings read alike, the source gives them in different places.

As for `COC(=O)N(OC)c1ccccc1COc1ccn(-c2ccc(Cl)cc2)n1` [pyraclostrobin], the “Efficacy W” value in experiment [1] (pyraclostrobin 0.5 ppm in spray liquor, Riesling leaves sprayed 1 day before inoculation) came to 92%.

For `O=C(Nc1ccccc1-c1ccc(Cl)cc1)c1cccnc1Cl` [boscalid], in experiment [2] (boscalid 20 ppm, soybean 'Monsoy' leaves sprayed 2 days before inoculation, scored after 10-12 days), the “Efficacy W” value amounted to 11%.

In the case of `[Ca+2].[O-]P([O-])O` [Ca(H2PO3)2, calcium hydrogenphosphite], the “Efficacy W” value stood at 21% in experiment [3] (in vivo); 0% in [4] (in vivo); 3% in [1] (in vivo); 3% in experiment [5] (in vivo); 18% in experiment [6] (in vivo); 24% in [7] (in vivo). Besides, the figures for the “Efficacy W” value in experiment [2] (in vivo), in [8] (in vivo) and in experiment [9] (in vivo) were 48%, 9% and 0%, respectively.

With `N#Cc1sc2c(=O)c3ccccc3c(=O)c=2sc1C#N` [dithianon], the “Efficacy W” value in experiment [3] (dithianon 400 ppm, outdoors, natural infections, 7 application dates, spray interval 14-16 days) is listed as 48%; in [4] (dithianon 10 ppm, bar application on lower half of upper leaf side 1 day before inoculation, scored on apical half of leaf underside), 6%; in experiment [5] (dithianon 10 ppm in spray liquor, grapevine leaves sprayed 1 day before inoculation), 62%; in [10], 31%; in [6] (dithianon 300 ppm, outdoors, natural infections, spray interval 14-16 days, scored 1 day after the 6th application) it was 85%; in [7] (dithianon 300 ppm, outdoors, natural infections, spray interval 9-11 days, scored 4 days after the 8th application) it was 56%.

For `CCCCCCCCc1c(CC)nc2ncnn2c1N` [fungicide A, 5-ethyl-6-octyl-[1,2,4]triazolo[1,5-a]pyrimidin-7-ylamine], the “Efficacy W” value is given as 39% in experiment [11]; 85% in experiment [8] (fungicide A 100 ppm, grapevine leaves sprayed 7 days before inoculation); 1% in experiment [9] (fungicide A 5 ppm, translaminar, applied to upper side of leaf 48 hours prior to inoculation).
